Measurements from US7022667B2, “O-derivatized nocathiacin derivatives” (Bristol-Myers Squibb Company, priority 2002, dated 2006).
In brackets after ≈: the same amount, converted by molar mass.

Legend:
Test in all cases: MIC, broth micro dilution assay (NCCLS)
Format in all cases: cell-based
[1] = test system: Enterococcus faecalis A20688; settings: Mueller-Hinton medium, 35° C., 18 hours
Description: (§1) The serial broth dilution method used Mueller-Hinton medium except for the Streptococcus pneumoniae which was tested in 50% Mueller-Hinton medium and 50% Todd Hewitt medium. The final bacterial inoculate contained approximately 5×10^5 cfu/well and was run on microtiter plates. The volume of each well was 100 μL and the plates were incubated at 35° C. for 18 hours in ambient air. The MIC was defined as the lowest drug concentration that prevented visible growth.

[2] = test system: Streptococcus pneumoniae A28272; settings: 50% Mueller-Hinton medium and 50% Todd Hewitt medium, 35° C., 18 hours
Description: as §1

[3] = test system: Staphylococcus aureus A15090; settings: Mueller-Hinton medium, 35° C., 18 hours
Description: as §1

SMILES | MIC (μg/mL) Enterococcus faecalis A20688 [1] [µg/mL] | MIC (μg/mL) Streptococcus pneumoniae A28272 [2] [µg/mL] | MIC (μg/mL) Staphylococcus aureus A15090 [3] [µg/mL]
C=C(NC(=O)c1csc(-c2nc3c(cc2O)-c2nc(cs2)C(=O)NC(C(C)O)C(=O)NC(=C(C)OC)c2nc(cs2)C(=O)NC2c4nc(cs4)C(=O)NC(COC(=O)c4c5c6c(cccc6n4OCCCOC4OC(CO)C(O)C(O)C4O)COC(=O)C(OC4CC(C)(O)C(N(C)C)C(C)O4)C2OC5)c2nc-3cs2)n1)C(N)=O (stereo not drawn) [Example 58] | >128 | 0.06 (≈ 0.0362 µM) | 16 (≈ 9.65 µM)
C=C(NC(=O)c1csc(-c2nc3c(cc2O)-c2nc(cs2)C(=O)NC(C(C)O)C(=O)NC(=C(C)OC)c2nc(cs2)C(=O)NC2c4nc(cs4)C(=O)NC(COC(=O)c4c5c6c(cccc6n4OC(=O)NC)COC(=O)C(OC4CC(C)(O)C(N(C)C)C(C)O4)C2OC5)c2nc-3cs2)n1)C(N)=O (stereo not drawn) [Example 60] | 0.06 (≈ 0.0401 µM) | 0.001 (≈ 0.000669 µM) | 0.125 (≈ 0.0836 µM)
C=C(NC(=O)c1csc(-c2nc3c(cc2O)-c2nc(cs2)C(=O)NC(C(C)O)C(=O)NC(=C(C)OC)c2nc(cs2)C(=O)NC2c4nc(cs4)C(=O)NC(COC(=O)c4c5c6c(cccc6n4OC(=O)N(C)CCO)COC(=O)C(OC4CC(C)(O)C(N(C)C)C(C)O4)C2OC5)c2nc-3cs2)n1)C(N)=O (stereo not drawn) [Example 61] | 0.03 (≈ 0.0195 µM) | 0.0005 (≈ 0.000325 µM) | 0.03 (≈ 0.0195 µM)
C=C(NC(=O)c1csc(-c2nc3c(cc2O)-c2nc(cs2)C(=O)NC(C(C)O)C(=O)NC(=C(C)OC)c2nc(cs2)C(=O)NC2c4nc(cs4)C(=O)NC(COC(=O)c4c5c6c(cccc6n4OC(=O)NCCOCCOCCOCCOC)COC(=O)C(OC4CC(C)(O)C(N(C)C)C(C)O4)C2OC5)c2nc-3cs2)n1)C(N)=O (stereo not drawn) [Example 62] | 0.125 (≈ 0.0748 µM) | 0.015 (≈ 0.00898 µM) | 0.125 (≈ 0.0748 µM)
C=C(NC(=O)c1csc(-c2nc3c(cc2O)-c2nc(cs2)C(=O)NC(C(C)O)C(=O)NC(=C(C)OC)c2nc(cs2)C(=O)NC2c4nc(cs4)C(=O)NC(COC(=O)c4c5c6c(cccc6n4OP(=O)(O)OCCCl)COC(=O)C(OC4CC(C)(O)C(N(C)C)C(C)O4)C2OC5)c2nc-3cs2)n1)C(N)=O (stereo not drawn) [Example 65] | 0.5 (≈ 0.316 µM) | 0.03 (≈ 0.019 µM) | 0.25 (≈ 0.158 µM)
C=C(NC(=O)c1csc(-c2nc3c(cc2OCC(=O)NCC#N)-c2nc(cs2)C(=O)NC(C(C)O)C(=O)NC(=C(C)OC)c2nc(cs2)C(=O)NC2c4nc(cs4)C(=O)NC(COC(=O)c4c5c6c(cccc6n4OCC(=O)NCC#N)COC(=O)C(OC4CC(C)(O)C(N(C)C)C(C)O4)C2OC5)c2nc-3cs2)n1)C(N)=O (stereo not drawn) [Example 70] | 0.5 (≈ 0.307 µM) | 0.06 (≈ 0.0368 µM) | 4.0 (≈ 2.45 µM)
C=C(NC(=O)c1csc(-c2nc3c(cc2OCC(=O)OCCO)-c2nc(cs2)C(=O)NC(C(C)O)C(=O)NC(=C(C)OC)c2nc(cs2)C(=O)NC2c4nc(cs4)C(=O)NC(COC(=O)c4c5c6c(cccc6n4OCC(=O)OCCO)COC(=O)C(OC4CC(C)(O)C(N(C)C)C(C)O4)C2OC5)c2nc-3cs2)n1)C(N)=O (stereo not drawn) [Example 72] | 4.0 (≈ 2.44 µM) | 0.06 (≈ 0.0365 µM) | 4.0 (≈ 2.44 µM)
C=C(NC(=O)c1csc(-c2nc3c(cc2OCOP(=O)(OC(C)(C)C)OC(C)(C)C)-c2nc(cs2)C(=O)NC(C(C)O)C(=O)NC(=C(C)OC)c2nc(cs2)C(=O)NC2c4nc(cs4)C(=O)NC(COC(=O)c4c5c6c(cccc6n4OCOP(=O)(OC(C)(C)C)OC(C)(C)C)COC(=O)C(OC4CC(C)(O)C(N(C)C)C(C)O4)C2OC5)c2nc-3cs2)n1)C(N)=O (stereo not drawn) [Example 73] | 2.0 (≈ 1.06 µM) | 0.25 (≈ 0.133 µM) | 2.0 (≈ 1.06 µM)
C=CCOc1cc2c(nc1-c1nc(C(=O)NC(=C)C(N)=O)cs1)-c1csc(n1)C1COC(=O)c3c4c5c(cccc5n3OCC=C)COC(=O)C(OC3CC(C)(O)C(N(C)C)C(C)O3)C(OC4)C(NC(=O)c3csc(n3)C(=C(C)OC)NC(=O)C(C(C)O)NC(=O)c3csc-2n3)c2nc(cs2)C(=O)N1 (stereo not drawn) [Example 74] | 0.25 (≈ 0.165 µM) | 0.0005 (≈ 0.000329 µM) | 0.06 (≈ 0.0395 µM)
C#CCOc1cc2c(nc1-c1nc(C(=O)NC(=C)C(N)=O)cs1)-c1csc(n1)C1COC(=O)c3c4c5c(cccc5n3OCC#C)COC(=O)C(OC3CC(C)(O)C(N(C)C)C(C)O3)C(OC4)C(NC(=O)c3csc(n3)C(=C(C)OC)NC(=O)C(C(C)O)NC(=O)c3csc-2n3)c2nc(cs2)C(=O)N1 (stereo not drawn) [Example 75] | 0.06 (≈ 0.0396 µM) | 0.0005 (≈ 0.00033 µM) | 0.03 (≈ 0.0198 µM)
C=C(NC(=O)c1csc(-c2nc3c(cc2OCC(N)=O)-c2nc(cs2)C(=O)NC(C(C)O)C(=O)NC(=C(C)OC)c2nc(cs2)C(=O)NC2c4nc(cs4)C(=O)NC(COC(=O)c4c5c6c(cccc6n4OCOCC[Si](C)(C)C)COC(=O)C(OC4CC(C)(O)C(N(C)C)C(C)O4)C2OC5)c2nc-3cs2)n1)C(N)=O (stereo not drawn) [Example 78] | 16 (≈ 9.85 µM) | 0.06 (≈ 0.0369 µM) | 64 (≈ 39.4 µM)

The next lines start with the values.

MIC (μg/mL) Enterococcus faecalis A20688 [1] [µg/mL] | MIC (μg/mL) Streptococcus pneumoniae A28272 [2] [µg/mL] | MIC (μg/mL) Staphylococcus aureus A15090 [3] [µg/mL] | SMILES
>128 | 0.5 (≈ 0.332 µM) | 16 (≈ 10.6 µM) | COC(C)=C1NC(=O)C(C(C)O)NC(=O)c2csc(n2)-c2cc(O)c(-c3nc(C(N)=O)cs3)nc2-c2csc(n2)C2COC(=O)c3c4c5c(cccc5n3OCCCCS(=O)(=O)O)COC(=O)C(OC3CC(C)(O)C(N(C)C)C(C)O3)C(OC4)C(NC(=O)c3csc1n3)c1nc(cs1)C(=O)N2 (stereo not drawn) [Example 59]
0.125 | 0.06 | 1.0 | C=C(NC(=O)c1csc(-c2nc3c(cc2O)-c2nc(cs2)C(=O)NC(C(C)O)C(=O)NC(=C(C)OC)c2nc(cs2)C(=O)NC2c4nc(cs4)C(=O)NC(COC(=O)c4c5c6c(cccc6n4OS(=O)(=O)[O-])COC(=O)C(OC4CC(C)(O)C(N(C)C)C(C)O4)C2OC5)c2nc-3cs2)n1)C(N)=O.[Na+] (stereo not drawn) [Example 64]
0.25 (≈ 0.155 µM) | 0.001 (≈ 0.000618 µM) | 2.0 (≈ 1.24 µM) | C=C(NC(=O)c1csc(-c2nc3c(cc2OCc2ccccc2)-c2nc(cs2)C(=O)NC(C(C)O)C(=O)NC(=C(C)OC)c2nc(cs2)C(=O)NC2c4nc(cs4)C(=O)NC(COC(=O)c4c5c6c(cccc6n4OCc4ccccc4)COC(=O)C(OC4CC(C)(O)C(N(C)C)C(C)O4)C2OC5)c2nc-3cs2)n1)C(N)=O (stereo not drawn) [Example 66]
128 | 0.5 | >128 | C=C(NC(=O)c1csc(-c2nc3c(cc2OCCCS(=O)(=O)[O-])-c2nc(cs2)C(=O)NC(C(C)O)C(=O)NC(=C(C)OC)c2nc(cs2)C(=O)NC2c4nc(cs4)C(=O)NC(COC(=O)c4c5c6c(cccc6n4OCCCS(=O)(=O)[O-])COC(=O)C(OC4CC(C)(O)C(N(C)C)C(C)O4)C2OC5)c2nc-3cs2)n1)C(N)=O.[Na+].[Na+] (stereo not drawn) [Example 67]
4.0 (≈ 2.4 µM) | 0.007 (≈ 0.0042 µM) | 8.0 (≈ 4.8 µM) | C=C(NC(=O)c1csc(-c2nc3c(cc2OCC(=O)OC(C)(C)C)-c2nc(cs2)C(=O)NC(C(C)O)C(=O)NC(=C(C)OC)c2nc(cs2)C(=O)NC2c4nc(cs4)C(=O)NC(COC(=O)c4c5c6c(cccc6n4OCC(=O)OC(C)(C)C)COC(=O)C(OC4CC(C)(O)C(N(C)C)C(C)O4)C2OC5)c2nc-3cs2)n1)C(N)=O (stereo not drawn) [Example 68]
64 (≈ 34.8 µM) | 0.25 (≈ 0.136 µM) | 16 (≈ 8.7 µM) | C=C(NC(=O)c1csc(-c2nc3c(cc2OCC(=O)NCCNC(=O)OC(C)(C)C)-c2nc(cs2)C(=O)NC(C(C)O)C(=O)NC(=C(C)OC)c2nc(cs2)C(=O)NC2c4nc(cs4)C(=O)NC(COC(=O)c4c5c6c(cccc6n4OCC(=O)NCCNC(=O)OC(C)(C)C)COC(=O)C(OC4CC(C)(O)C(N(C)C)C(C)O4)C2OC5)c2nc-3cs2)n1)C(N)=O (stereo not drawn) [Example 69]
4.0 (≈ 2.49 µM) | 0.125 (≈ 0.0777 µM) | 8.0 (≈ 4.98 µM) | C=C(NC(=O)c1csc(-c2nc3c(cc2OCC(=O)N(C)C)-c2nc(cs2)C(=O)NC(C(C)O)C(=O)NC(=C(C)OC)c2nc(cs2)C(=O)NC2c4nc(cs4)C(=O)NC(COC(=O)c4c5c6c(cccc6n4OCC(=O)N(C)C)COC(=O)C(OC4CC(C)(O)C(N(C)C)C(C)O4)C2OC5)c2nc-3cs2)n1)C(N)=O (stereo not drawn) [Example 71]
1.0 (≈ 0.655 µM) | 0.03 (≈ 0.0197 µM) | 0.5 (≈ 0.328 µM) | C=C(NC(=O)c1csc(-c2nc3c(cc2OCCO)-c2nc(cs2)C(=O)NC(C(C)O)C(=O)NC(=C(C)OC)c2nc(cs2)C(=O)NC2c4nc(cs4)C(=O)NC(COC(=O)c4c5c6c(cccc6n4OCCO)COC(=O)C(OC4CC(C)(O)C(N(C)C)C(C)O4)C2OC5)c2nc-3cs2)n1)C(N)=O (stereo not drawn) [Example 77]
1.0 (≈ 0.603 µM) | 0.015 (≈ 0.00905 µM) | 1.0 (≈ 0.603 µM) | C=C(NC(=O)c1csc(-c2nc3c(cc2OCc2ccccc2)-c2nc(cs2)C(=O)NC(C(C)O)C(=O)NC(=C(C)OC)c2nc(cs2)C(=O)NC2c4nc(cs4)C(=O)NC(COC(=O)c4c5c6c(cccc6n4OCOCC[Si](C)(C)C)COC(=O)C(OC4CC(C)(O)C(N(C)C)C(C)O4)C2OC5)c2nc-3cs2)n1)C(N)=O (stereo not drawn) [Example 79]
